Source: patent US11478486B2, “Association of actives for treating prostate cancer” (priority 2017, dated 2022)

How the values were obtained:
Assay type in all cases: cell-based, human
AR-V7 [1] = assay: CELIGO microscope observation of AR-V7 expression; conditions: 22Rv1 cells, 72 hours; enzalutamide 30.0 μM, SB202190 5.0 μM, LY2228820 2.5 μM; control 30.0%
Method: The expression of AR-V7 was observed by the CELIGO microscope in 22Rv1 cells after 72 hours of culture.

AR-V7 [2] = assay: western blot of AR and AR-V7 expression in 22Rv1 cells; conditions: 22Rv1, 72 hours; abiraterone 7.5 μM, enzalutamide 7.5 μM, SB202190 (504)
Method: Western blot analysis was performed, detecting the wild-type form of AR and the AR-V7 form as well (FIG. 7). In this way the inventors tested the involvement of the p38 inhibitor in abiraterone and enzalutamide resistance, the AR-V7.

p38 (MAPK14) = assay: p38 activation, western blot with anti-phospho-p38 antibody; conditions: 22Rv1 and LNCaP prostate cancer cells, 24 hours
Method: FIG. 1: Abiraterone induces p38 activation. Prostate cancer cells LNCaP (Androgen Receptor expressing cells) were treated with abiraterone (30 μM). Prostate cancer cells 22Rv1 (Androgen Receptor and AR-V7 expressing cells) were treated with 0.1, 1.0, 10.0 and 30.0 μM abiraterone during 24 hours. Protein were extracted and subjected to western blot analysis using anti-phospho-p38, anti-p38 and anti-tubulin antibodies. (Example 1)
[…]. A: LNCaP human prostate cells (Androgen Receptor expressing cells) were treated by enzalutamide (35.0 μM) during 24 h00. Phosphorylation p38 was assessed. Tubuline and non-phosphorylated proteins were stained as a loading control. B: same experiment with the Androgen Receptor and AR-V7 expressing 22Rv1 human prostate cancer cells (Example 1).

SMILES | % of cells with ARv7 (AR-V7 [1]) | AR-V7 expression (AR-V7 [2]) | activation of MAPK p38 (phosphorylated form of p38) (p38 (MAPK14))
Oc1ccc(-c2nc(-c3ccncc3)c(-c3ccc(F)cc3)[nH]2)cc1 [SB202190] | 28.0% | inhibits AR-V7 expression | 
CC(C)(C)Cn1c(N)nc2ccc(-c3[nH]c(C(C)(C)C)nc3-c3ccc(F)cc3)nc21 [LY2228820] | 34.0% |  | 
CNC(=O)c1ccc(N2C(=S)N(c3ccc(C#N)c(C(F)(F)F)c3)C(=O)C2(C)C)cc1F [enzalutamide] |  |  | activates the MAPK p38
